This passage reports DC50 and GI50 results from US12606533B2, “3-phenylpropylamine derivative” (DAIICHI SANKYO COMPANY, LIMITED, priority 2023, dated 2026).

One assay addresses T1, SF-1 (Homo sapiens, UniProt Q13285).
T1 construct: NCI-H295R SF-1-HiBiT cells with HiBiT tag knocked in at the endogenous SF1 locus; host or cells: NCI-H295R SF-1-HiBiT (knock-in at endogenous locus)
The experiment in a line: SF1 degradation induction in NCI-H295R SF-1-HiBiT cells (HiBiT DC50). The note with it: 24 hr, concentration that induces 50% degradation of SF-1. It counts as cell-based. The method in brief: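 NCI-H295R cells carrying HiBiT-tagged SF-1, plated and grown 24 hr, then exposed to serially diluted compounds for 24 hr at 37° C. Remaining SF-1 read by lytic HiBiT luminescence; degradation rate from treated vs compound-free signal, DC50 as concentration giving 50% degradation.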

The next assay deals with NCI-H295R cells. The experiment in a line: Proliferation inhibitory action on NCI-H295R (CellTiter-Glo, 7 days). The note with it: Homo sapiens, NCI-H295R, 168 h. Type of assay: cell-based, human. Put shortly: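 Compounds serially diluted in DMSO; cells seeded at 2×10^3 cells/well and cultured 7 days at 37° C, 5% CO2. CellTiter-Glo 2.0 luminescence read at day 0 and day 7; proliferation rate derived from compound-addition-day signal, untreated day-7 signal and treated day-7 signal.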

Molecule `COc1ccc(C2(CCN(Cc3ccc(OC4CCN(CC(=O)Nc5cccc6c5n(C)c(=O)n6C5CCC(=O)NC5=O)CC4)cc3)CC(C)(C)C(F)(F)F)CCOCC2)cc1` (stereo not shown) [Example AC6, N-[1-(2,6-Dioxopiperidin-3-yl)-3-methyl-2-oxo-2,3-dihydro-1H-benzimidazol-4-yl]-2-[4-(4-{[{2-[4-(4-methoxyphenyl)tetrahydro-2H-pyran-4-yl]ethyl}(3,3,3-trifluoro-2,2-dimethylpropyl)amino]methyl}phenoxy)piperidin-1-yl]acetamide] came in with a DC50 on SF-1 of 26 nM. The molecule also returned a GI50 in the assay on NCI-H295R cells of 73 nM.

On to `COc1ccc([C@]2(CCN(Cc3ccc(OC4CC5(CCN(CC(=O)Nc6cccc7c6n(C)c(=O)n7C6CCC(=O)NC6=O)CC5)C4)cc3)CC(C)(C)C(F)(F)F)CCOC(C)(C)C2)cc1` (stereo partly drawn) [Example AD1, N-[1-(2,6-Dioxopiperidin-3-yl)-3-methyl-2-oxo-2,3-dihydro-1H-benzimidazol-4-yl]-2-[2-(4-{[{2-[(4R)-4-(4-methoxyphenyl)-2,2-dimethyltetrahydro-2H-pyran-4-yl]ethyl}(3,3,3-trifluoro-2,2-dimethylpropyl)amino]methyl}phenoxy)-7-azaspiro[3.5]nonan-7-yl]acetamide], for which the DC50 at SF-1 turned out to be 6.9 nM. The GI50 in the assay with NCI-H295R cells came to 47 nM.

Turning to `COc1ccc([C@]2(CCN(Cc3ccc(OC4CC5(CCN(CC(=O)Nc6ccc7c(c6)n(C)c(=O)n7C6CCC(=O)NC6=O)CC5)C4)cc3)CC(C)(C)C(F)(F)F)CCOC(C)(C)C2)cc1` (stereo partly drawn) [Example AE1, N-[1-(2,6-Dioxopiperidin-3-yl)-3-methyl-2-oxo-2,3-dihydro-1H-benzimidazol-5-yl]-2-[2-(4-{[{2-[(4R)-4-(4-methoxyphenyl)-2,2-dimethyltetrahydro-2H-pyran-4-yl]ethyl}(3,3,3-trifluoro-2,2-dimethylpropyl)amino]methyl}phenoxy)-7-azaspiro[3.5]nonan-7-yl]acetamide], the DC50 at SF-1 was determined as 8.5 nM. Also, it took 40 nM to inhibit growth in the assay on NCI-H295R cells by half (GI50).

The molecule `COc1ccc([C@]2(CCN(Cc3ccc(OC4CC5(CCN(CC(=O)Nc6ccc7c(c6)CN(C6CCC(=O)NC6=O)C7=O)CC5)C4)cc3)CC(C)(C)C(F)(F)F)CCOC(C)(C)C2)cc1` (stereo partly drawn) [Example AF1, N-[2-(2,6-Dioxopiperidin-3-yl)-1-oxo-2,3-dihydro-1H-isoindol-5-yl]-2-[2-(4-{[{2-[(4R)-4-(4-methoxyphenyl)-2,2-dimethyltetrahydro-2H-pyran-4-yl]ethyl}(3,3,3-trifluoro-2,2-dimethylpropyl)amino]methyl}phenoxy)-7-azaspiro[3.5]nonan-7-yl]acetamide] had a DC50 on SF-1 of 6.9 nM. This molecule returned a GI50 with NCI-H295R cells of 121 nM.

The molecule `COc1ccc([C@]2(CCN(Cc3ccc(C4=CCC(CN5CCN(C(=O)c6ccc7c(c6)CN(C6CCC(=O)NC6=O)C7=O)CC5)CC4)cc3)CC(C)(C)C(F)(F)F)CCOC(C)(C)C2)cc1` (stereo partly drawn) [Example AG7, 3-[5-({4-[(4′-{[{2-[(4R)-4-(4-Methoxyphenyl)-2,2-dimethyltetrahydro-2H-pyran-4-yl]ethyl}(3,3,3-trifluoro-2,2-dimethylpropyl)amino]methyl}-2,3,4,5-tetrahydro[biphenyl]-4-yl)methyl]piperazin-1-yl}carbonyl)-1-oxo-1,3-dihydro-2H-isoindol-2-yl]piperidine-2,6-dione] registered a DC50 at SF-1 of 8.7 nM. Also, in the assay with NCI-H295R cells, the GI50 stood at 147 nM.

Molecule `COc1ccc([C@]2(CCN(Cc3ccc(C4=CCC(CN5CCN(C(=O)c6cccc7c6n(C)c(=O)n7C6CCC(=O)NC6=O)CC5)CC4)cc3)CC(C)(C)C(F)(F)F)CCOC(C)(C)C2)cc1` (stereo partly drawn) [Example AH4, 3-[4-({4-[(4′-{[{2-[(4R)-4-(4-Methoxyphenyl)-2,2-dimethyltetrahydro-2H-pyran-4-yl]ethyl}(3,3,3-trifluoro-2,2-dimethylpropyl)amino]methyl}-2,3,4,5-tetrahydro[biphenyl]-4-yl)methyl]piperazin-1-yl}carbonyl)-3-methyl-2-oxo-2,3-dihydro-1H-benzimidazol-1-yl]piperidine-2,6-dione] showed a DC50 on SF-1 of 5.7 nM. For the same molecule, growth in the assay with NCI-H295R cells was halved (GI50) at 123 nM.

`COc1ccc([C@]2(CCN(Cc3ccc([C@H]4CC[C@@H](CN5CCN(C(=O)c6ccc7c(c6)n(C)c(=O)n7C6CCC(=O)NC6=O)CC5)CC4)cc3)CC(C)(C)C(F)(F)F)CCOC(C)(C)C2)cc1` (stereo partly drawn) [Example AI11, 3-{5-[(4-{[Cis-4-(4-{[{2-[(4R)-4-(4-methoxyphenyl)-2,2-dimethyltetrahydro-2H-pyran-4-yl]ethyl}(3,3,3-trifluoro-2,2-dimethylpropyl)amino]methyl}phenyl)cyclohexyl]methyl}piperazin-1-yl)carbonyl]-3-methyl-2-oxo-2,3-dihydro-1H-benzimidazol-1-yl}piperidine-2,6-dione]: the DC50 at SF-1 was 6.2 nM. Besides, growth with NCI-H295R cells was halved (GI50) at 90 nM.

In the case of `COc1ccc([C@]2(CCN(Cc3ccc(OC4CC5(CCN(CC(=O)N6CCc7ccc8c(c7C6)n(C)c(=O)n8C6CCC(=O)NC6=O)CC5)C4)cc3)CC(C)(C)C(F)(F)F)CCOC(C)(C)C2)cc1` (stereo partly drawn) [Example AK10, 3-(8-{[2-(4-{[{2-[(4R)-4-(4-Methoxyphenyl)-2,2-dimethyltetrahydro-2H-pyran-4-yl]ethyl}(3,3,3-trifluoro-2,2-dimethylpropyl)amino]methyl}phenoxy)-7-azaspiro[3.5]nonan-7-yl]acetyl}-1-methyl-2-oxo-1,2,6,7,8,9-hexahydro-3H-imidazo[4,5-h]isoquinolin-3-yl)piperidine-2,6-dione], half-maximal degradation at SF-1 (DC50) was put at 4.9 nM. Growth in the assay on NCI-H295R cells was halved (GI50) at 82 nM.

As to `COc1ccc([C@]2(CCN(Cc3ccc(OC4CC5(CCN(CC(=O)N6Cc7ccc8c(c7C6)n(C)c(=O)n8C6CCC(=O)NC6=O)CC5)C4)cc3)CC(C)(C)C(F)(F)F)CCOC(C)(C)C2)cc1` (stereo partly drawn) [Example AL4, 3-[7-{[2-(4-{[{2-[(4R)-4-(4-Methoxyphenyl)-2,2-dimethyltetrahydro-2H-pyran-4-yl]ethyl}(3,3,3-trifluoro-2,2-dimethylpropyl)amino]methyl}phenoxy)-7-azaspiro[3.5]nonan-7-yl]acetyl}-1-methyl-2-oxo-1,6,7,8-tetrahydroimidazo[4,5-e]isoindole-3(2H)-yl]piperidine-2,6-dione], on SF-1, the DC50 was 4.5 nM. In the assay on NCI-H295R cells, this molecule displayed a GI50 of 83 nM.

Regarding `COc1ccc([C@]2(CCN(Cc3ccc(C4=CCC(CC(=O)NCCNc5ccc6c(c5)n(C)c(=O)n6C5CCC(=O)NC5=O)CC4)cc3)CC(C)(C)C(F)(F)F)CCOC(C)(C)C2)cc1` (stereo partly drawn) [Example Y6, N-(2-{[1-(2,6-Dioxopiperidin-3-yl)-3-methyl-2-oxo-2,3-dihydro-1H-benzimidazol-5-yl]amino}ethyl)-2-(4′-{[{2-[(4R)-4-(4-methoxyphenyl)-2,2-dimethyltetrahydro-2H-pyran-4-yl]ethyl}(3,3,3-trifluoro-2,2-dimethylpropyl)amino]methyl}-2,3,4,5-tetrahydro[biphenyl]-4-yl)acetamide], the DC50 at SF-1 came to 12 nM. In addition, the GI50 with NCI-H295R cells is 199 nM.

In turn, `COc1ccc([C@]2(CCN(Cc3ccc(OC4CCN(CC(=O)Nc5cccc6c5n(C)c(=O)n6C5CCC(=O)NC5=O)CC4)cc3)CC(C)(C)C(F)(F)F)CCOC(C)(C)C2)cc1` (stereo partly drawn) [Example Z8, N-[1-(2,6-Dioxopiperidin-3-yl)-3-methyl-2-oxo-2,3-dihydro-1H-benzimidazol-4-yl]-2-[4-(4-{[{2-[(4R)-4-(4-methoxyphenyl)-2,2-dimethyltetrahydro-2H-pyran-4-yl]ethyl)(3,3,3-trifluoro-2,2-dimethylpropyl)amino]methyl}phenoxy)piperidin-1-yl]acetamide] had a DC50 at SF-1 of 10 nM. Moreover, growth with NCI-H295R cells was halved (GI50) at 43 nM.
